The results in this text go back to patent US11124510B2, “Alkyl chain modified imidazoquinoline TLR7/8 agonist compounds and uses thereof” (Dynavax Technologies Corporation, priority 2017, dated 2021).

One experiment concerns serum IL-6 and IL-12p40. The experiment can be described thus: In vivo systemic immune activation assay: serum IL-6 and IL-12p40 by ELISA after single subcutaneous injection. Set-up: species or system mice. To be noted: for serum IL-6 / serum IL-12p40: 5 μg subcutaneously in footpad, 95% sesame oil/5% ethanol, ± SEM. Here is the method:
Small molecule TLR7 and TLR7/8 agonists derived from the 1H-imidazo[4,5-c]quinoline privileged template (see e.g., Imiquimod, Resiquimod) are known to rapidly distribute to the systemic compartment following intratumoral, subcutaneous, or intramuscular injection. Broad systemic distribution of these agonist compounds in wild-type mice induces TLR7-dependent cytokine responses, primarily in spleen and liver cells, which can subsequently be detected in the serum within 3-6 hours. The rapid increase in serum cytokine biomarkers (e.g., IL-6 and IL-12p40) can be used to assess the kinetics of systemic distribution of a locally administered TLR agonist.
The kinetics of distribution of pharmaceutical compositions comprised of Compound Nos. 63-00, 63-17, or 63-10 formulated in 95% sesame oil/5% ethanol (v/v) were assessed following a single subcutaneous injection in wild-type mice. All in vivo procedures were conducted in accordance with approved Institutional Animal Care and Use Committee (IACUC) protocols. The animals were housed in a facility that is accredited by the Association for Accreditation and Laboratory Animal Care (AALAC, Frederick Md.). Wild-type female BALB/c mice (15-20 gm) were obtained from Envigo (Hayward, Calif.) and acclimated for 2-3 days prior to use.
The pharmaceutical compositions were made with the three compounds, at a final concentration of 200 μg/mL, in a manner similar to that described in Example B2-1. At T=0, groups of 3 mice were anesthetized with 1% isoflurane and injected subcutaneously in the right footpad with 5 μg of each of the three compounds, or a vehicle control, in 25 uL of 95% sesame oil/5% ethanol (v/v). Then, at T=3, 6, and 24 hours, three animals from each group were anesthetized with 1% isoflurane to facilitate blood collection by cardiac puncture. Samples were processed to serum, and stored at −20° C. for further analysis.

Another experiment has as its system CT26 colon carcinoma. In words: Anti-tumor efficacy in combination with anti-PD-1 antibody in dual flank CT26 colon carcinoma-bearing mice. Format: in vivo. To be noted: 5,000 ng single intratumoral dose day 14, in combination with anti-PD-1. The protocol:
All in vivo procedures were conducted in accordance with approved IACUC protocols. The animals were housed in a facility that is accredited by the AALAC. Wild-type female Balb/c mice (15-20 g) were obtained from Envigo (Hayward, Calif.) and acclimated for 2-3 days prior to use.
The pharmaceutical compositions were made using Compound No. 63-10 or 63-33 at final concentrations of 50,000 ng/mL in a manner similar to that described for Example B2-1. […] On day 0, mice were anesthetized with 1% isoflurane, and 80,000 CT26 tumor cells in 200 uL of RMPI-1640 culture media plus 2.5% fetal bovine serum were injected subcutaneously in both the right and left flanks. Tumors (left and right) were allowed to grow until day 8, when the right and left flank tumor sizes had reached approximately 35 mm^3, at which point mice were injected intraperitoneally with 250 μg of anti-PD-1 antibody formulated in phosphate buffered saline or a phosphate buffered saline vehicle control. The anti-PD-1 treatments were repeated on experimental days 12, 15, 19, 22, and 26. On experimental day 14, when the right (injected) and left (distal) flank tumors had reached approximately 100 mm^3, mice were randomized into treatment groups. […] Tumor sizes were measured twice weekly from days 14 through day 29 with calipers, with tumor volumes calculated using the formula: length, multiplied by width, multiplied by width, divided by 2.

In a further experiment the target is TLR7 (Homo sapiens (Human), UniProt Q9NYK1). The experiment can be described thus: TLR7 agonist bioactivity: induction of IFNα protein in pDC-enriched PBMC cultures (ELISA, 24 h). Type of experiment: cell-based. Particulars: less potent than IMDQ. The protocol:
Plasmacytoid dendritic cell (pDC)—enriched peripheral blood mononuclear cells (PBMCs) were prepared from the blood of a series of human donors (3-5 donors/experiment). PBMCs were isolated using Ficoll-Paque Premium® (GE Healthcare, Chicago Ill.) using methods well known to those in the art. pDCs were magnetically isolated from the total recovered PBMC population using CD304 (BDCA-4/Neuropilin-1) microbeads (Miltenyi Biotec, San Diego Calif.), according to the manufacturer's instructions. Isolated pDCs were then added back to between 1 and 2×10^8 of the corresponding donor's PBMCs for relative enrichment of this cell type. […] Culture supernatants were collected and interferon-alpha (IFNα) protein levels were measured by ELISA (MabTech, Cincinnati Ohio), according to the manufacturer's instructions.

The target in a further experiment is TLR8 (Homo sapiens (Human), UniProt Q9NR97). The experiment can be described thus: TLR8 agonist bioactivity: induction of TNFα protein in monocyte cultures (ELISA, 24 h). Type of experiment: cell-based. The protocol:
Monocytes were magnetically isolated from PBMCs, prepared as described above, following labeling with CD14 microbeads (Miltenyi Biotec, San Diego Calif.), according to the manufacturer's instructions. […] Culture supernatants were collected and tumor necrosis factor alpha (TNFα) protein levels were measured by ELISA (MabTech, Cincinnati Ohio), according to the manufacturer's instructions.

Each structure is given as a SMILES string.

Chain of TLR8 (Q9NR97 27-1041): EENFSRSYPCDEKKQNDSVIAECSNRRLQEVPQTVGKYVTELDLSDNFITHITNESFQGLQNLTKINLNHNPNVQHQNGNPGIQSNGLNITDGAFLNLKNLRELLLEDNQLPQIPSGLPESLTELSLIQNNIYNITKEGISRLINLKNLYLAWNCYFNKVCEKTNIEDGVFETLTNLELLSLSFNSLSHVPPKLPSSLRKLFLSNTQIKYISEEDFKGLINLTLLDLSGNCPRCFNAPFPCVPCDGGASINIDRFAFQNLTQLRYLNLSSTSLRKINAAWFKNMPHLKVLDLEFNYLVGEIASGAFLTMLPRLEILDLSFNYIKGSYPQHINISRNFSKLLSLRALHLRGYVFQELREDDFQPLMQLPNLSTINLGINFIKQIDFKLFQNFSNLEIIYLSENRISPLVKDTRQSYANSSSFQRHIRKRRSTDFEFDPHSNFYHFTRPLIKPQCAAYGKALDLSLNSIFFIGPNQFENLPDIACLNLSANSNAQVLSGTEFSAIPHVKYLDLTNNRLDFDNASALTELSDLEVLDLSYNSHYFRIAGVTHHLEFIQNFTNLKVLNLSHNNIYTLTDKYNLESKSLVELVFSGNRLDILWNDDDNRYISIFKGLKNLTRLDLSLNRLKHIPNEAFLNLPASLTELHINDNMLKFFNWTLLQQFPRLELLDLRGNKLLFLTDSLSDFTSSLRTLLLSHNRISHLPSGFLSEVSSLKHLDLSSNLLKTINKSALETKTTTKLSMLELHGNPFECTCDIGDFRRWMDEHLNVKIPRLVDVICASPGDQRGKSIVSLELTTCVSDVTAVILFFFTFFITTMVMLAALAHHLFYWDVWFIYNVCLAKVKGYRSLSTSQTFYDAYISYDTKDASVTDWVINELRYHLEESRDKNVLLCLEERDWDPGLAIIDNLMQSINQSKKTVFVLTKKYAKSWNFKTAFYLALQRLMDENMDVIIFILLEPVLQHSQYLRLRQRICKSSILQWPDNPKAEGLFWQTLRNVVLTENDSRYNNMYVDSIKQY
Chain of TLR7 (Q9NYK1 27-1049): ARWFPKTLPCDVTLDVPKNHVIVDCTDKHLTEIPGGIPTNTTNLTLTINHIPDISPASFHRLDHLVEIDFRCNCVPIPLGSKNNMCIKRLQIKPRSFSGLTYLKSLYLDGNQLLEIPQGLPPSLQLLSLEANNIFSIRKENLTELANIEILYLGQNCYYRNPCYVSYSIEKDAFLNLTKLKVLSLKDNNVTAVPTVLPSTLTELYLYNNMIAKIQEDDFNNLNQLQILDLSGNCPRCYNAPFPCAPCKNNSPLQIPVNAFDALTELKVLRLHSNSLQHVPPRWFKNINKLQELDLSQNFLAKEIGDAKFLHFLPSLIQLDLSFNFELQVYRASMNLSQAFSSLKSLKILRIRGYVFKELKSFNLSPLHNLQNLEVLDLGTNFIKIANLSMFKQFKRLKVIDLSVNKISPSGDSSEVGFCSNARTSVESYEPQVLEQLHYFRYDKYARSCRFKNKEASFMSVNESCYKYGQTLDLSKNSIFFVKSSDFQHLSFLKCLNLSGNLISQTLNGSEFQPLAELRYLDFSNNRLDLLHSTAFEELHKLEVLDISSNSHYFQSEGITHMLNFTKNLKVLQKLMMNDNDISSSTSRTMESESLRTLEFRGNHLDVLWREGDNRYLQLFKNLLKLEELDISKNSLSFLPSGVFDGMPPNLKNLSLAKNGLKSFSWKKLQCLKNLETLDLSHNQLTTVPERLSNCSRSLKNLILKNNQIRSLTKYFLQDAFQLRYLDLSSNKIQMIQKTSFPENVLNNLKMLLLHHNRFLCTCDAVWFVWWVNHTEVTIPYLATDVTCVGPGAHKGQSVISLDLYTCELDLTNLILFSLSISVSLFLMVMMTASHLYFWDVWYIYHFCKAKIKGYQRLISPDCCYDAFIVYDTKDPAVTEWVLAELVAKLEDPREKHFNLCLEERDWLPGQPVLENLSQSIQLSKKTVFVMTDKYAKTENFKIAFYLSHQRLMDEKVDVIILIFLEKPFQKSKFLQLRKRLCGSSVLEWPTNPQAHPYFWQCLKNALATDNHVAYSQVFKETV

Take `CCCCCCCCCCCCCC(=O)NCc1ccc(Cn2c(CCCC)nc3c(N)nc4ccccc4c32)cc1` [Compound No. 63-10, N-(4-((4-amino-2-butyl-1H-imidazo[4,5-c]quinolin-1-yl)methyl)benzyl)tetradecanamide]: the “serum IL-6” value with serum IL-6 and IL-12p40 (3 hours) turned out to be 49 ± 32 pg/mL; in the experiment on serum IL-6 and IL-12p40 (6 hours), 33 ± 4 pg/mL; in the experiment on serum IL-6 and IL-12p40 (24 hours), 32 ± 2 pg/mL. Further, the “serum IL-12p40” value in the experiment on serum IL-6 and IL-12p40 (3 hours) is listed as 1,012±246 pg/mL; with serum IL-6 and IL-12p40 (6 hours), 2,179±597 pg/mL; in the experiment with serum IL-6 and IL-12p40 (24 hours), 2,436±237 pg/mL. Besides, the “increase in serum cytokines” value in the experiment on serum IL-6 and IL-12p40 (at 3, 6, or 24 hours, 5 μg subcutaneously) was “no detectable increase”. The “tumor growth inhibition in the injected tumor (right flank) compared to the anti-PD-1 treatment alone” value with CT26 colon carcinoma was “greater tumor growth inhibition”. Besides, the “tumor growth inhibition in the distal tumor (left flank) compared to the anti-PD-1 treatment alone” value in the experiment on CT26 colon carcinoma (day 29) is given as “no improvement”. In addition, at TLR7, the “fold loss of TLR7 agonist potency compared to Compound No. 63-00 (IMDQ)” value came out at 2 fold. At TLR8 (TNFα induction, human monocytes, 24 hours), this compound came in with an EC50 of 522 nM. Besides, the “fold loss of TLR8 agonist potency compared to Compound No. 63-00 (IMDQ)” value at TLR8 (less potent than IMDQ) came to 2.4 fold.
